Reference: patent publication US20110152267A1, “Compositions and Methods for Treating Hyperproliferative Disorders” (Texas Tech University System, priority 2009, published 2011)

How the values were obtained:
Type in all cases: cell-based, human
[1] = tested on: NCI-H-1792 lung adenocarcinoma cell line; assay: DIMSCAN cytotoxicity, fenretinide + L-threo-sphinganines 3:1 (Example B12); conditions: 96 h
Method: Cytotoxicity Assay—Once again, cytotoxicity is determined using the DIMSCAN assay system (R. Proffitt et al., Cytometry 24, 204-213 (1996); T. Frgala et al., Mol Cancer Ther. 6:886-97, 2007). The system employs digital imaging microscopy to quantify viable cells, which selectively accumulate fluorescein diacetate to become brightly fluorescent. The system is capable of measuring cytotoxicity over a 4-5 log dynamic range by quenching the residual fluorescence of dead and dying cells with eosin Y and quantifying the total fluorescence of viable cells using digital thresholding. Measured fluorescence is directly proportionate to the number of viable cells. A comparison of the total fluorescence of a drug-treated cell population to the fluorescence of a similar number of untreated cells yields a survival fraction. In brief, 2000 to 10,000 cells/well (depending on size and growth rates) are replicate plated into 60 wells of a 96-well tissue culture plate in 0.1 mL of whole medium and allowed to attach overnight. Drug(s) are then added in 0.05 mL of whole medium to the final concentrations indicated. Drugs (fenretinide, and various chain length L-threo-sphinganines) were tested both as single agents and in a 3:1 ratio of fenretinide:sphinganine. C18-L-threo-sphinganine, or “safingol,” was also tested and results shown for reference. There are 12 wells treated per drug concentration. Twelve wells receive drug vehicle-only to the appropriate final concentration and serve as controls for the plate. Cells are incubated for 96 hours at 37° C. in ambient air with 5% CO2. Fluorescein diacetate is then added to each well in 0.05 mL media to a final concentration of 8 microgram/mL. Cells are incubated for a further 15 minutes at 37° C. and 0.03 mL of 0.5% eosin Y is added to each well. Total fluorescence of viable cells is then measured by digital imaging microscopy. Results were graphed as the ratio of the fluoresecence of drug-treated wells to non-drug treated control wells (i.e., Survival Fraction). All tests were performed at least twice. Representative results are shown.
The Combination Index (CI) is a term to describe mathematical modeling of the pharmacologic effects on cytotoxicity (cell death) of two drugs in combination based. Cytotoxic “synergy” is defined as a cell death affect which is greater than would be expected from a simple product of the single agent cytotoxicities alone (i.e. an “additive” effect). By Chou-Talalay analysis, a CI<0.9 on a Fraction Affected (“Fa”, i.e. fraction of cells killed) indicates synergy, with smaller numbers indicating greater synergy; a CI of 0.9-1.1 signifies an additive or near-additive effect; and a CI>1.1 means the drug combination is antagonistic.
Fenretinide and L-threo-sphinganines tested in human lung adenocarcinoma (lung cancer) cell line, NCI-H-1792.

[2] = tested on: GBM2 glioblastoma brain cancer cell line; assay: DIMSCAN cytotoxicity dose-response with fenretinide, with or without D-threo-PPMP (Examples A, FIGS. 3, 9, 14, 18-20); conditions: +96 hrs; for C.I. of D-threo-PPMP with fenretinide+L-threo-sphinganine (three drug combination): 2% oxygen, D-threo-PPMP fixed 10 uM, at most doses; for C.I. (Combination Index) with fenretinide: at one or more doses
Method: Cytotoxicity Assay: Cytotoxicity in cell lines was determined using a fluorescence-based assay employing digital imaging microscopy (DIMSCAN)(after Fragala, et al, Mol Cancer Ther, 6:886-897, 2007). DIMSCAN quantitates viable cells which selectively accumulate fluorescein diacetate and is capable of measuring cytotoxicity over a 4-5 log dynamic range by quantifying total fluorescence per well (which is proportional to viable, clonogenic cells) after eliminating background fluorescence using digital thresholding and eosin Y quenching. Briefly, cell lines were seeded into 96-well plates in 100 µL of complete culture medium (10-20% serum) per well. Cells were incubated overnight in 2%, 5% or 20% oxygen (room air) prior to addition of drugs in […] volumes of complete medium to various final drug concentrations in replicates of 12 wells per concentration. In assays employing D-threo-PPMP, PPMP was employed at a fixed, minimally-toxic, final concentration of 10 μM in each well. Control wells received ethanol (final concentration=0.12%-0.20%) in complete medium equivalent to the maximum final ethanol concentration of drug-treated wells. Plates were incubated at various oxygen concentrations to simulate physiological hypoxia (i.e., 2% oxygen=typical solid tumor oxygen levels; 5%=bone marrow oxygen levels for leukemias; 20% room air=supraphysiological oxygen for comparison with typical laboratory culture conditions). Plates were assayed at 3-4 days after initiating drug exposure depending on the growth properties of each cell line, to allow for maximum cell death and outgrowth of surviving cells. To measure cytotoxicity, FDA (stock solution of 1 mg/ml in DMSO) was added, in 50 µL of complete medium per well, to a final concentration of 10 µg/ml. The plates were incubated for an additional 15-30 minutes at 37 C and then 30 µL of eosin Y (0.5% in normal saline) was added per well. Total fluorescence of each well was then measured using digital imaging microscopy.
FIGS. 1 to 26 illustrate the effect (Examples A1 through A26) of the claimed invention and were carried out using the procedures disclosed herein.

[3] = tested on: MCF-7/ADR (OVCAR-8/ADR) ovarian cancer cell line; assay: DIMSCAN cytotoxicity dose-response with fenretinide (Examples A, FIG. 16); conditions: 2% oxygen, at one or more doses, +96 hrs
Method: Cytotoxicity Assay: Cytotoxicity in cell lines was determined using a fluorescence-based assay employing digital imaging microscopy (DIMSCAN)(after Fragala, et al, Mol Cancer Ther, 6:886-897, 2007). DIMSCAN quantitates viable cells which selectively accumulate fluorescein diacetate and is capable of measuring cytotoxicity over a 4-5 log dynamic range by quantifying total fluorescence per well (which is proportional to viable, clonogenic cells) after eliminating background fluorescence using digital thresholding and eosin Y quenching. Briefly, cell lines were seeded into 96-well plates in 100 µL of complete culture medium (10-20% serum) per well. Cells were incubated overnight in 2%, 5% or 20% oxygen (room air) prior to addition of drugs in […] volumes of complete medium to various final drug concentrations in replicates of 12 wells per concentration. In assays employing D-threo-PPMP, PPMP was employed at a fixed, minimally-toxic, final concentration of 10 μM in each well. Control wells received ethanol (final concentration=0.12%-0.20%) in complete medium equivalent to the maximum final ethanol concentration of drug-treated wells. […] Total fluorescence of each well was then measured using digital imaging microscopy. […]

[4] = 4-HPR 1.5 μM + L-threo-sphinganine 0.5 μM
[5] = 4-HPR 3 μM + L-threo-sphinganine 1 μM
[6] = 4-HPR 6 μM + L-threo-sphinganine 2 μM
[7] = 4-HPR 9 μM + L-threo-sphinganine 3 μM

SMILES | CI (Combination Index) [1, 4] | Fa (fraction affected) [1, 4] | CI (Combination Index) [1, 5] | Fa (fraction affected) [1, 5] | CI (Combination Index) [1, 6] | Fa (fraction affected) [1, 6] | CI (Combination Index) [1, 7] | Fa (fraction affected) [1, 7] | C.I. of D-threo-PPMP with fenretinide+L-threo-sphinganine (three drug combination) [2] | C.I. (Combination Index) with fenretinide [2] | C.I. (Combination Index) with fenretinide [3]
CCCCCCCCCCCCCCCC[C@H](O)[C@@H](N)CO [C19, (2S,3S)-2-amino-1,3-nonadecanediol] | 1.1 | 0.138 | 1.1 | 0.736 | 1.2 | 0.965 | 0.9 | 0.993 | < 1 | < 1 | –
CCCCCCCCCCCCCCC[C@H](O)[C@@H](N)CO [C18, (2S,3S)-2-amino-1,3-octadecanediol, reference compound] | 1.2 | 0.243 | 0.8 | 0.756 | 0.6 | 0.983 | 0.4 | 0.999 | – | – | –
CCCCCCCCCCCCCCCCC[C@H](O)[C@@H](N)CO [C20, (2S,3S)-2-amino-1,3-icosanediol] | 0.9 | 0.287 | 0.7 | 0.852 | 0.7 | 0.972 | 0.5 | 0.998 | < 1 | < 1 | < 1
CCCCCCCCC[C@H](O)[C@@H](N)CO [C12] | 1.0 | 0.217 | 1.3 | 0.642 | 1.4 | 0.951 | 1.8 | 0.975 | – | – | –
CCCCCCCCCCCCCC[C@H](O)[C@@H](N)CO [C17, (2S,3S)-2-amino-1,3-heptadecanediol] | 1.1 | 0.112 | 1.0 | 0.661 | 0.9 | 0.974 | 1.0 | 0.993 | < 1 | < 1 | –
